# Measured values: patent US7040746B2, “Inkjet ink having yellow dye mixture” (Lexmark International, Inc., priority 2003, dated 2006)
# What was measured:
# Assay type in all cases: physicochemical
# [1] = CIELAB color data and optical density of printed ink patches (Gretag-McBeth Spectolino/Spectrascan); settings: dye alone in ink
# Description: CIELAB Color System-Space: The CIELAB color system was established by the Commission Internationale de l'Eclairage (CIE) in 1976. It is color space to be used for the specification of color differences. The L* is a correlate to perceived lightness ranging from 0.0 for black to 100.0 for a diffuse white. The a* and b* dimensions correlate approximately with red-green and yellow-blue chroma perceptions. They take on both negative and positive values. Their maximum values are limited by the physical properties of materials. The color difference (ΔE*ab) between two color points. (L*[…]) and (L*2, a*2, b2), is defined by the distance between the two points and computed by ΔE*ab=[(L*2−L*1)^2+(a*2−a*1)^2+(b*2−b*1)^2]^1/2
# The cylindrical coordinate system provides predictors of lightness. L*, chroma, C*, and hue, H*. The chroma correlates the colorfulness of an area and the hue correlates the types of colors such as red, green, blue, yellow, etc. The relationship among a*, b*, C* and H* is given by C*=[a*2+b*2]^1/2 H*=tan^−1(b*/a*) a*=C* cos(H*) b*=C* sin(H*)
# (§1) The color data was collected on a Gretag-McBeth Spectolino/Spectrascan with 100% coverage patches printed on Kodak Premium Photo Paper. Permanence was evaluated by measuring the relative fade of 0.6 OD yellow block printed on Ilford Printasia Glossy Photo Paper after 504 hours of exposure to 43-kLux cool white fluorescent illumination.
# [2] = Aqueous solubility of dye
# [3] = Permanence: relative fade of 0.6 OD yellow block under fluorescent illumination; settings: dye alone in ink; for permanence (relative fade): 0.6 OD block on Ilford Printasia Glossy Photo Paper, 504 hours, 43-kLux cool white fluorescent, higher = more fade
# Method: as §1
# [4] = 3% by weight, Kodak Premium Photo Paper
H* (hue) ([1]; 3% by weight),a* ([1]; 3% by weight),b* ([1]; 3% by weight),optical density ([1]; 3% by weight),"C* (chroma) [1, 4]",aqueous solubility [2] [%],lightfastness / permanence (in words) ([3]; 3% by weight),permanence (relative fade) ([3]; 3% by weight) [%],C* (chroma) ([1]; 3.4% by weight),H* (hue) ([1]; 3.4% by weight),a* ([1]; 3.4% by weight),b* ([1]; 3.4% by weight),optical density ([1]; 3.4% by weight),permanence (relative fade) ([3]; 3.4% by weight) [%],Compound
89.5,1.0,110.3,1.5,110.3,40,extremely poor lightfastness,86.6,,,,,,,"O=C([O-])C1=NN(c2ccc(S(=O)(=O)[O-])cc2)C(=O)C1N=Nc1ccc(S(=O)(=O)[O-])cc1.[Na+].[Na+].[Na+] (centres unmarked) [Acid Yellow 23, reference compound]"
96.3,−10.8,92.6,1.3,93.2,19,much better permanence,27.9,,,,,,,Acid Yellow 17
,,,,,13,,,106.7,86.9,5.9,106.3,1.7,18,Direct Yellow 132
